In BindingDB's records for doi:10.7270/Q2N58JV3 (Burnham Center For Chemical Genomics, 2010) one finds IC50 data, which are given here for one molecule.

The structures appear in SMILES notation.

The assay has as its target Polyadenylate-binding protein 1 (Homo sapiens, UniProt P11940). The assay can be described thus: PABP inhibition in translation initiation, SAR follow-up (AID 435018).

Chain of Polyadenylate-binding protein 1 (P11940 whole entry): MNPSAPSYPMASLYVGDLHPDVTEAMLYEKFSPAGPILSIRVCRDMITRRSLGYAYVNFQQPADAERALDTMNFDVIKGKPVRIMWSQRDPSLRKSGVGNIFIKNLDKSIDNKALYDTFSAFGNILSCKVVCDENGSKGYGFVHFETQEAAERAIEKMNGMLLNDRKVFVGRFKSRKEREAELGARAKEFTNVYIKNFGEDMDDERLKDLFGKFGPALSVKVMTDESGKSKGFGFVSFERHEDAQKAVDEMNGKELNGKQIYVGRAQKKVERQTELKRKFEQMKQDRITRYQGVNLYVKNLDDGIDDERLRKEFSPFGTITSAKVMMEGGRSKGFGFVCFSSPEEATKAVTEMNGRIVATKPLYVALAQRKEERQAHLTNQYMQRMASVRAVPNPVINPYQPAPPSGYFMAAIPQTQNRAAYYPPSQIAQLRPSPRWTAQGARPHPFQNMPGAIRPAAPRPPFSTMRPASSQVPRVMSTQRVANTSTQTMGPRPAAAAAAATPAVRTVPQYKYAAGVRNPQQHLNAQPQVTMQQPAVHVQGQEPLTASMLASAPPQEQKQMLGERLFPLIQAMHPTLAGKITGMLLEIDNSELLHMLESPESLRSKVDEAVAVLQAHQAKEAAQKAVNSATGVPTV

Regarding `COc1cc([CH+][N-]NC(=O)c2ccc(O)cc2)ccc1OCC(=O)Nc1cccc([N+](=O)[O-])c1`, the IC50 (usually the concentration that inhibits the measured activity by half) is greater than 100 µM.
